Results published in article PMC3609778, “Truncated and Helix-Constrained Peptides with High Affinity and Specificity for the cFos Coiled-Coil of AP-1” (PLoS ONE, 2013).
Entries after “also recorded” stand apart in the source; their conditions may differ. Where a SMILES comes first, the peptide text is derived from it. Bridges are numbered along the chain shown (N, C = ends). [ ]: non-standard residue; d: D form. Cha = N[C@@H](CC1CCCCC1)C(=O)O

Columns and labels:
cFos [1] = target: T1, cFos (Homo sapiens, UniProt P01100); test: Circular dichroism spectra of peptide-cFos mixtures; assay type: binding; details: mixture with cFos; for Peptide-cFos Ɵ222/208 (20ºC): CD ratio, 20 °C; for Peptide-cFos Fraction helical (ƒH): CD 222 nm, 20°C, 150 µM total peptide
Protocol: (§1) Circular dichroism (CD) spectroscopy was conducted with an Applied Photophysics Chirascan CD spectroploarimeter (Leatherhead, U.K.) using a 200 µL sample in a CD cell with a 1 mm path length (Hellma, Müllheim Germany). Samples contained 150 µM total peptide concentration suspended in 10 mM potassium phosphate and 100 mM potassium fluoride at pH 7. The CD spectra of the homodimeric and heterodimeric complexes were scanned between 300 nm and 190 nm at 20°C (for both pre- and post-melt samples to check for reversibility of unfolding) and at −8°C to assess helical levels and coiled-coil structure (see Figure 4).
(§2) Thermal denaturation data and spectra for the cFos homotypic complex (black), helix constrained peptide (blue), and heteromeric complex (red) were recorded using 200 µL of sample at 150µM total peptide concentration (Figure 4, Figure S1). Next, 100 µL of each solution was mixed and the spectra taken such that the final total peptide concentration was also 150 µM. More experimental procedures can be found in File S1.
(§3) Supplementary file pone.0059415.s005.doc: Table S1 Helical Data obtained via Circular Dichroism. Shown are A) homo and B) heteromeric samples. […] A ratio higher than 1 is generally indicated evidence that a coiled coil has formed, while a ratio of less than 0.9 is taken to indicate the presence of isolated helices. Shown in column two are the calculated fractional helicities taken from the Molar Residue Ellipticity at […]. Fraction helicity (ƒH) can be calculated as ƒH = (θ222−θc)/(θ222∞−θc) where θ222∞ = (−44000+250*T)*(1−k/Nr) and θc = 2220–(53*T). In these equations the wavelength dependent constant k = 2.4 (at 222 nm), Nr = the number of residues, and T = 20 degrees Celsius (293 K). The 222/208 ratio is used to provide evidence on whether the helices are monomeric or are adopting a quaternary structure. Measured helicity for the original JunWCANDI peptide and for the template on which the hydrocarbon constraints have been introduced. […] The N- and C-capping motifs have been removed for the constrained since they are considered to be largely redundant upon their introduction. (DOC) Click here for additional data file.

[2] = Circular dichroism helicity of peptide in isolation (homotypic); assay type: physicochemical; details: for Homotypic Ɵ222/208 (20ºC): CD ratio, 20 °C; for Homotypic Ɵ222/208 (20ºC) / Fraction helical (ƒH), homotypic: peptide in isolation; for Fraction helical (ƒH), homotypic: from CD molar residue ellipticity at 222 nm
Protocol: as §1, §3

cFos [3] = target: T1, cFos; test: Thermal denaturation (CD at 222 nm) of peptide-cFos mixtures; assay type: binding; details: judged from thermal denaturation profiles and CD spectra of mixtures with cFos
Protocol: as §2

cJun = test: CD spectra and thermal denaturation of peptide-cJun mixtures (specificity); assay type: binding; details: equimolar with cJun
Protocol: (§4) To establish if the truncated and constrained peptides retained the interaction specificity of the JunWCANDI parent peptide, peptides capable of interacting with cFos were also incubated at equimolar concentrations with cJun and monitored via CD spectra. […] In addition, a dimer exchange experiment was performed for the most helical peptide 24. Spectra for a cJun-peptide solution and a cFos solution should, upon mixing, generate an averaged spectrum if there was no dimer exchange. […] Spectra for both mixtures can be superimposed (Figure S4).
Supplementary file pone.0059415.s002.tiff: Figure S2 Raw thermal melting data for homo and heterodimeric complexes with cJun for constrained peptides 1 , 2 , 8 , 9, 10 , 11, 12, 17, 20, 22, and 24 . […] (TIFF) Click here for additional data file.
Supplementary file pone.0059415.s003.tiff: Figure S3 CD spectra as MRE both in isolation and as a mixture with cJun. From these raw data it is also clear that no interaction is occurring between constrained peptides and cJun. Rather, specta appear as averages of their homodimeric components (i.e. superimpose with the homomeric averages). We observe no heteromeric helical signal (red) that exceeds the average (black dotted line) of cJun (black) and the constrained peptide (blue), that would be anticipated for a non-interacting pair. (TIFF) Click here for additional data file.
Supplementary file pone.0059415.s005.doc: Table S1 Helical Data obtained via Circular Dichroism. Shown are A) homo and B) heteromeric samples. […] A ratio higher than 1 is generally indicated evidence that a coiled coil has formed, while a ratio of less than 0.9 is taken to indicate the presence of isolated helices. Shown in column two are the calculated fractional helicities taken from the Molar Residue Ellipticity at […]. Fraction helicity (ƒH) can be calculated as ƒH = (θ222−θc)/(θ222∞−θc) where θ222∞ = (−44000+250*T)*(1−k/Nr) and θc = 2220–(53*T). […] Measured helicity for the original JunWCANDI peptide and for the template on which the hydrocarbon constraints have been introduced. […]

cFos [4] = target: T1, cFos; test: Dimer exchange experiments between cJun, cFos and constrained peptide (CD spectra); assay type: binding; details: equimolar mixtures, CD spectra compared with average of constituent spectra
Protocol: as §4
(TIFF) Click here for additional data file.

Serum stability = assay type: in vitro ADME; details: 200 µL of 1 mg/ml peptide in water added to 800 µL human serum, 37°C, aliquots 0-24 h, acetonitrile/water 3:1, LC-MS-MS total ion counts
Protocol: Stock solutions of 12 and 24 in both constrained forms and linear forms lacking constraints were prepared in water (1 mg/ml), 200 µL was added to human serum (800 µL) and incubated at 37°C. Aliquots (100 µL) of this diluted serum were removed at 0, 0.5, 1, 2, 4, 16, and 24 hours and a mixture of acetonitrile/water 3∶1 (300 µL) was added to each aliquot before centrifuging (17000 rpm, 15 min). Aliquots (100 µL) of the supernatant were then analysed by LC-MS-MS after passing through a 2.1×150 mm Phenomenex 300A C18 5 µm column at 10% per minute linear gradient from 0–100% acetonitrile over 12 minutes. The amount of starting material was quantified by determination of total ion counts for the m/3+ and m/4+ ion for each peptide (Figure 3).

cFos [5] = target: T1, cFos; test: Isothermal Titration Calorimetry (ITC) of peptides with cFos; assay type: binding; details: 20°C
Protocol: Figure 5 Isothermal Titration Calorimetry (ITC) analysis of leucine zipper domain interactions between constrained peptides and cFos. Shown are isotherms for all ten measureable heterodimers (1, 2, 8, 10, 11, 12, 17, 20, 22, and 24) injected into a cell containinginto cFos. The top and bottom panels show, respectively, raw data after baseline correction. During ITC experiments, approximately 200–600 µM of peptide A was injected in 30–40×5 µl batches from the injection syringe into the cell, which contained 10–40 µM cFos. Both partners were in a 10 mM Potassium Phosphate buffer, 100 mM Potassium Fluoride at pH 7. Experiments were undertaken at 20°C. […]
ITC Measurements - ITC measurements were made using a Microcal VP-ITC instrument with data collected and processed using the Origin 7.0 software package. […] The change in thermal power as a function of each injection was automatically recorded using the Microcal Origin software and the raw data were integrated to yield ITC isotherms of heat release per injection as a function of Fos to Jun Molar ratio (Figure 5). […]
where R is the universal molar gas constant (1.9872 cal·K^-1·mol^-1), T is the absolute temperature in Kelvin (293.15 K) and KD is the dissociation constant of binding with units of mol·L^-1. Finally, the entropic contribution (TΔS) to the free energy of binding was calculated using the derived values of ΔH and ΔGbind.

T1 sequence (P01100 whole entry): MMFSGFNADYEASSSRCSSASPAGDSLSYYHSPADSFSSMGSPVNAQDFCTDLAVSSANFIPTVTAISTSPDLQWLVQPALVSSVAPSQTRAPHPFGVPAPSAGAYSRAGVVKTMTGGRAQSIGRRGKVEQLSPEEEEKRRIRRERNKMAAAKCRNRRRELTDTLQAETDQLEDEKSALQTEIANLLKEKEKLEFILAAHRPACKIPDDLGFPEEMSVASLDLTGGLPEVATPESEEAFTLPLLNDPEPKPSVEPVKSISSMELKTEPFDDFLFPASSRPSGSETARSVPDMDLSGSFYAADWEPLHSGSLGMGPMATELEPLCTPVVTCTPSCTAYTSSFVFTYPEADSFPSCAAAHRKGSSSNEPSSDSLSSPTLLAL

Row | Compound | Peptide-cFos Ɵ222/208 (20ºC) (cFos [1]) | Peptide-cFos Fraction helical (ƒH) (cFos [1]) | Homotypic Ɵ222/208 (20ºC) [2] | Fraction helical (ƒH), homotypic ([2]; 20°C, 150 µM, pH 7) | interaction with cFos (in words) (cFos [3]) | interaction with cJun (in words) (cJun) | dimer exchange on mixing cFos-cFos with cJun-peptide (cFos [4]) | dimer exchange on mixing cJun-cJun with cFos-peptide (cFos [4]) | stability in human serum (Serum stability) | TΔS [ΔH – ΔG] (cFos [5]; calculated according to TΔS = ΔH−ΔG) | ΔH (cFos [5]; pH 7) | helicity of peptide in isolation ([2]; from CD spectra, 20°C, 150 µM, pH 7)
1 | CC[C@H](C)[C@H](NC(=O)[C@H](Cc1c[nH]cn1)NC(=O)[C@@H]1CC(=O)NCCCC[C@H](NC(=O)[C@H](C)NC(=O)[C@H](CCCCN)NC(=O)[C@H](CO)NC(=O)[C@H](CCCNC(=N)N)NC(=O)[C@H](CC(C)C)NC(=O)[C@@H]2CC(=O)NCCCC[C@H](NC(=O)[C@H](CCCCN)NC(=O)[C@H](CC3CCCCC3)NC(C)=O)C(=O)N[C@@H](CCC(=O)O)C(=O)N[C@@H]([C@@H](C)CC)C(=O)N[C@@H](Cc3ccc(O)cc3)C(=O)N2)C(=O)N[C@@H](CCSC)C(=O)N[C@@H](CC(C)C)C(=O)N[C@@H](CCCNC(=N)N)C(=O)N1)C(=O)N[C@@H](C)C(=O)N[C@@H](CCC(N)=O)C(=O)N[C@@H](CC1CCCCC1)C(N)=O [compound 20] (Ac-[Cha]KKEIYDLRSKAKMLRDHIAQ[Cha]-NH2; lactam 3-7, 13-17) | 0.92 | 0.49 | 0.91 | 0.51 | profiles consistent with a strong interaction affinity for cFos | none of the peptides form a stable interaction with cJun | – | – | – | – | – | –
2 | CC[C@H](C)[C@@H]1NC(=O)[C@H](Cc2c[nH]cn2)NC(=O)[C@@H](NC(=O)[C@H](CCCNC(=N)N)NC(=O)[C@H](CC(C)C)NC(=O)[C@@H]2CC(=O)NCCCC[C@H](NC(=O)[C@H](CCCNC(=N)N)NC(=O)[C@H](CC(C)C)NC(=O)[C@@H]3CC(=O)NCCCC[C@H](NC(=O)[C@H](CCCNC(=N)N)NC(=O)[C@H](CC4CCCCC4)NC(C)=O)C(=O)N[C@@H](CCC(=O)O)C(=O)N[C@@H]([C@@H](C)CC)C(=O)N[C@@H](Cc4ccc(O)cc4)C(=O)N3)C(=O)N[C@@H](CCCCN)C(=O)N[C@@H](C)C(=O)N[C@@H](CC(N)=O)C(=O)N2)CCCCNC(=O)C[C@@H](C(=O)N[C@@H](CC2CCCCC2)C(N)=O)NC(=O)[C@H](C)NC1=O [compound 24, Ac-cyclo-(3,7; 10,14; 17,21)-ChaR[KEIYD]LR[KKAND]LR[KHIAD]Cha-NH2] (Ac-[Cha]RKEIYDLRKKANDLRKHIAD[Cha]-NH2; lactam 3-7, 10-14, 17-21) | 1.00 | 0.52 | 1.08 | 0.69 | – | none of the peptides form a stable interaction with cJun | dimer exchange did occur; also recorded: dimer exchange has occurred | no change in binding partner for peptide had occurred; also recorded: no change has occurred | resistant to proteolytic degradation in serum; also recorded: fairly stable in human serum over 4 h; also recorded: much more stable in human serum at 37° than the same peptide lacking the constraints | – | – | –
3 | Ac-ASAAELEERAKTLKAEIYELRSKANMLREHIAQLGAP-NH2 [JunWCANDI, reference compound] | 0.97 | 0.42 | 0.79 | 0.19 | – | – | – | – | – | -6.9 kcal/mol | -14.8 kcal/mol | 19%
